# From US20140315889A1, “HYDROXAMATE DERIVATIVES FOR HDAC INHIBITOR, AND THE PHARMACEUTICAL COMPOSITION COMPRISING THEREOF” (CHONG KUN DANG PHARMACEUTICAL CORP., priority 2011, published 2014)
# Tests used:
# human recombinant HDAC6 = molecular target: T1, human recombinant HDAC6 (Homo sapiens, UniProt Q9UBN7); assay: HDAC enzyme activity test, HDAC6; type: biochemical; conditions: Table 12; for Selectivity for HDAC6, HD1/HD6: ratio HDAC1 IC50 / HDAC6 IC50; for IC50: read-out: Inhibition ability (IC50) HDAC6
# T1 construct: purchased Calibiochem Co. (so in the source) 382180
# T1 sequence (Q9UBN7 1-1215): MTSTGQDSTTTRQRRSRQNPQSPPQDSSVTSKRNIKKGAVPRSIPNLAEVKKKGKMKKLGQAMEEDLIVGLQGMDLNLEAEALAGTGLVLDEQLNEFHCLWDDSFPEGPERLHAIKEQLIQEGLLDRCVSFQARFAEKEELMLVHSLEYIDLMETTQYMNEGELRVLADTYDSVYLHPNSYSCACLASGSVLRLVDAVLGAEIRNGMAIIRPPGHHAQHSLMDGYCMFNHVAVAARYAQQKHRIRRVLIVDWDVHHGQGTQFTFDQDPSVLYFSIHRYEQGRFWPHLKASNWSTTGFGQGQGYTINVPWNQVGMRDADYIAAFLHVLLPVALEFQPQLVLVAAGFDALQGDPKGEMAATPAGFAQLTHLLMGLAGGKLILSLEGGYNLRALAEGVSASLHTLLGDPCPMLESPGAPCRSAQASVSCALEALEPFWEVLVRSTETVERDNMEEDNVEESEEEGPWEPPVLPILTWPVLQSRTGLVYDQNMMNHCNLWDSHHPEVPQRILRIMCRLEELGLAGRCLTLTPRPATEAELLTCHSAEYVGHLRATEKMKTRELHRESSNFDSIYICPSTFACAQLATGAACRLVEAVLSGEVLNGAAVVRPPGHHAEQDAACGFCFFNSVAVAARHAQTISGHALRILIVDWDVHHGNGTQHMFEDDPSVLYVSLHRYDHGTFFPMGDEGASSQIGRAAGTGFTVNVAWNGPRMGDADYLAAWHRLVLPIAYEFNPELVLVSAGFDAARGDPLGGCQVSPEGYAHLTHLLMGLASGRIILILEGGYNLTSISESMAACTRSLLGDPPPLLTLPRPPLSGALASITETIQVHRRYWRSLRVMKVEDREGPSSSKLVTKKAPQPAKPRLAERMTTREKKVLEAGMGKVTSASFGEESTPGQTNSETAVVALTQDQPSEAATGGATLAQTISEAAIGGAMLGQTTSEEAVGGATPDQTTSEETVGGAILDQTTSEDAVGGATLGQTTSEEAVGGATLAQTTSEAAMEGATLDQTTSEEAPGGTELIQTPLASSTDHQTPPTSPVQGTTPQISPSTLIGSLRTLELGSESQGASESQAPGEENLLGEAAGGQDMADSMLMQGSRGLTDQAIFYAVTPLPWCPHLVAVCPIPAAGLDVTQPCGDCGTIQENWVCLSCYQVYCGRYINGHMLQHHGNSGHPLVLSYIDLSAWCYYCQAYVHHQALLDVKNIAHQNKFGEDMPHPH
# Procedure: (§1) Then, 0.3 μg of enzyme and 10 μM of substrate per well were added, reacted at 30° C. for 60 minutes. Thereto, Fluor de Lys® Developer II (BML-KI176) was added and reacted for 30 minutes. […] From the data, the respective IC50 were calculated by GraphPad Prism 4.0 program.
# Human recombinant HDAC1 = molecular target: T2, Human recombinant HDAC1 (Homo sapiens, UniProt Q13547); assay: HDAC enzyme activity test, HDAC1; type: biochemical; conditions: Table 12; read-out: Inhibition ability (IC50) HDAC1
# T2 construct: purchased Enzo Life Science Co. (named for the kit; assigned to the enzyme from the BML- catalogue prefix) BML-SE456
# Procedure: as §1
# T2 sequence (Q13547 whole entry): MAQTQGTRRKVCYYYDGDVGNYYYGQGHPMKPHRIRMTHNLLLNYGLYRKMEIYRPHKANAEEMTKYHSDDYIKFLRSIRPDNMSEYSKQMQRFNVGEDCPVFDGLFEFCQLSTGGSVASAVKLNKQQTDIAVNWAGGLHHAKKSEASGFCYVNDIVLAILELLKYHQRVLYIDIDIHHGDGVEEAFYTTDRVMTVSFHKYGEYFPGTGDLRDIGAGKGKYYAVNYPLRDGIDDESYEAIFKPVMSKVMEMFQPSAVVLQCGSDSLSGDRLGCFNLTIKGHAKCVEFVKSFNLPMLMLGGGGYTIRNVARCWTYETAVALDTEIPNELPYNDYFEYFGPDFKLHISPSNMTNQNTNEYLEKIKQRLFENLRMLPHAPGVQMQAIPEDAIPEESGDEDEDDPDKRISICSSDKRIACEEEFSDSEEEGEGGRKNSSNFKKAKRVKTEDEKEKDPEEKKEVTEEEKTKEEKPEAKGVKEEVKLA
SMILES,"Selectivity for HDAC6, HD1/HD6 (human recombinant HDAC6)",IC50 (human recombinant HDAC6),IC50 (Human recombinant HDAC1)
"O=C(CCCCCn1c2c(c3cc(F)ccc31)C(=O)C(CN1CCOCC1)CC2)NO (stereo not drawn) [Compound 321, 6-(6-fluoro-3-(morpholinomethyl)-4-oxo-1,2,3,4-tetrahydrocarbazol-9-yl)-N-hydroxyhexanamide]",121.8,110 nM,13300 nM
"CC1(C)CC(=O)c2c(n(CCCCCC(=O)NO)c3c(Br)cccc23)C1 [Compound 46, 6-(1-bromo-7,7-dimethyl-5-oxo-5,6,7,8-tetrahydrocarbazol-9-yl)-N-hydroxyhexanamide]",8.2,253 nM,2070 nM
"CC1(C)CC(=O)c2c(n(CCCCCC(=O)NO)c3cc(F)c(F)cc23)C1 [Compound 72, 6-(6,7-difluoro-2,2-dimethyl-4-oxo-1,2,3,4-tetrahydrocarbazol-9-yl)-N-hydroxyhexanamide]",28.2,215 nM,6060 nM
"O=C(NO)c1ccc(Cn2c3c(c4ccccc42)C(=O)C(CN2CCN(c4ccc(F)cc4)CC2)CC3)cc1 (stereo not drawn) [Compound 127, 4-((3-((4-(4-fluorophenyl)piperazin-1-yl)methyl)-4-oxo-1,2,3,4-tetrahydrocarbazol-9-yl)methyl)-N-hydroxybenzamide]",622.7,8.51 nM,5300 nM
"O=C(NO)c1ccc(Cn2c3c(c4ccccc42)C(=O)NCC3)cc1 [Compound 228, N-hydroxy-4-((1-oxo-1,2,3,4-tetrahydropyrido[4,3-b]indol-5-yl)methyl)benzamide]",208.3,16.9 nM,3530 nM
"CCN1CCN(CC2CCc3c(c4ccccc4n3CCCCCC(=O)NO)C2=O)CC1 (stereo not drawn) [Compound 206, 6-(3-((4-ethylpiperazin-1-yl)methyl)-4-oxo-1,2,3,4-tetrahydrocarbazol-9-yl)-N-hydroxyhexanamide]",43.5,27.5 nM,1200 nM
"Cc1nccn1CC1CCc2c(c3ccccc3n2Cc2ccc(C(=O)NO)cc2)C1=O (stereo not drawn) [Compound 85, N-hydroxy-4-((3-((2-methyl-1H-imidazole-1-yl)methyl)-4-oxo-1,2,3,4-tetrahydrocarbazol-9-yl)methyl)benzamide]",225,11.3 nM,2550 nM
"CC1(C)CC(=O)c2c(n(CCCCCC(=O)NO)c3cc(F)ccc23)C1 [Compound 76, 6-(7-fluoro-2,2-dimethyl-4-oxo-1,2,3,4-tetrahydrocarbazol-9-yl)-N-hydroxyhexanamide]",30.7,171 nM,5230 nM
"CC1(C)CCc2c(c3ccccc3n2Cc2ccc(C(=O)NO)cc2)C1=O [Compound 131, 4-((3,3-dimethyl-4-oxo-1,2,3,4-tetrahydrocarbazol-9-yl)methyl)-N-hydroxybenzamide]",296.6,9.1 nM,2690 nM
"Cc1cc2c(n1CCCCCCC(=O)NO)CC(C)(C)CC2=O [Compound 347, N-hydroxy-7-(2,6,6-trimethyl-4-oxo-4,5,6,7-tetrahydroindol-1-yl)heptanamide]",16.8,27 nM,453 nM
"CC1(C)CC(=O)c2c(n(CCCCCCC(=O)NO)c3c(Br)cccc23)C1 [Compound 52, 7-(1-bromo-7,7-dimethyl-5-oxo-5,6,7,8-tetrahydrocarbazol-9-yl)-N-hydroxyheptanamide]",27.7,23.9 nM,662 nM
"O=C(NO)c1ccc(Cn2c3c(c4ccccc42)C(=O)C(CN2CCN(C(=O)C4CC4)CC2)CC3)cc1 (stereo not drawn) [Compound 156, 4-((3-((4-(cyclopropancarbonyl)piperazin-1-yl)methyl)-4-oxo-1,2,3,4-tetrahydrocarbazol-9-yl)methyl)-N-hydroxybenzamide]",424.8,15.1 nM,6400 nM
"Cc1cn(Cc2ccc(C(=O)NO)cc2)c2c1C(=O)N(CCN1CCOCC1)CC2 [Compound 250, N-hydroxy-4-((3-methyl-5-(2-morpholinoethyl)-4-oxo-4,5,6,7-tetrahydropyrrolo[3,2-c]pyridin-1-yl)methyl)benzamide]",20.5,133 nM,2720 nM
"Cc1c2c(n(Cc3ccc(C(=O)NO)cc3)c1C)CCCC2=O [Compound 220, 4-((2,3-dimethyl-4-oxo-4,5,6,7-tetrahydroindol-1-yl)methyl)-N-hydroxybenzamide]",643.1,4.39 nM,2820 nM
O=C(NO)c1ccc(Cn2c3c(c4cc(F)ccc42)C(=O)N(CCN2CCOCC2)CC3)cc1 [Compound 266],2851,1.02 nM,2910 nM
"O=C(NO)c1ccc(Cn2c3c(c4cc(F)ccc42)C(=O)N(CCN2CCN(CCO)CC2)CC3)cc1 [Compound 288, 4-((8-fluoro-2-(2-(4-(2-hydroxyethyl)piperazin-1-yl)ethyl)-1-oxo-1,2,3,4-tetrahydropyrido[4,3-b]indol-5-yl)methyl)-N-hydroxybenzamide]",708.9,10.6 nM,7510 nM
"CN(CCO)CCN1CCc2c(c3cc(F)ccc3n2Cc2ccc(C(=O)NO)cc2)C1=O [Compound 292, 4-((8-fluoro-2-(2-((2-hydroxyethyl)(methyl)amino)ethyl)-1-oxo-1,2,3,4-tetrahydropyrido[4,3-b]indol-5-yl)methyl)-N-hydroxybenzamide]",781.3,12.8 nM,10000 nM
"CN1CCN(CCN2CCc3c(c4ccccc4n3Cc3ccc(C(=O)NO)cc3)C2=O)CC1 [Compound 251, N-hydroxy-4-((2-(2-(4-methylpiperazin-1-yl)ethyl)-1-oxo-1,2,3,4-tetrahydropyrido[4,3-b]indol-5-yl)methyl)benzamide]",820.3,1.77 nM,1450 nM
"O=C(NO)c1ccc(Cn2c3ccccc3c3c(=O)[nH]cnc32)cc1 [Compound 179, N-hydroxy-4-((4-oxo-3,4-dihydropyrimido[4,5-b]indol-9-yl)methyl)benzamide]",43.693,3.52 nM,154 nM
"Cc1ccc(N2CCN(CC3CCc4c(c5ccccc5n4Cc4ccc(C(=O)NO)cc4)C3=O)CC2)cc1C (stereo not drawn) [Compound 128, 4-((3-((4-(3,4-dimethylphenyl)piperazin-1-yl)methyl)-4-oxo-1,2,3,4-tetrahydrocarbazol-9-yl)methyl)-N-hydroxybenzamide]",198.6,41 nM,8140 nM
"Cc1c2c(n(Cc3ccc(C(=O)NO)cc3)c1C)CC(C)(C)CC2=O [Compound 236, N-hydroxy-4-((2,3,6,6-tetramethyl-4-oxo-4,5,6,7-tetrahydro-1H-indol-1-yl)methyl)benzamide]",479.4,10.7 nM,5110 nM
"O=C(NO)c1ccc(Cn2c3c(c4ccccc42)C(=O)N(CCN2CCC[C@H]2CO)CC3)cc1 [Compound 267, (S)—N-hydroxy-4-((2-(2-(2-(hydroxymethyl)pyrrolidin-1-yl)ethyl)-1-oxo-1,2,3,4-tetrahydropyrido[4,3-b]indol-5-yl)methyl)benzamide]",678.8,3.35 nM,2270 nM
"O=C(CCCCCCn1c2c(c3cc(F)ccc31)C(=O)C(CN1CCOCC1)CC2)NO (stereo not drawn) [Compound 344, 7-(6-fluoro-3-(morpholinomethyl)-4-oxo-1,2,3,4-tetrahydrocarbazol-9-yl)-N-hydroxyheptanamide]",6.3,16.2 nM,102 nM
